Measured values from the kinase profiling compilation of Christmann-Franck et al. (2016).

What was measured:
PRKCH (human) = PRKCH (human) (UniProt P24723); assay: Caliper, Mobility shift assay off-chip; conditions: compound 0.02 µM
ERBB4 (human) = ERBB4 (human) (UniProt Q15303); assay: Caliper, Mobility shift assay off-chip
CDC42BPA (human) = CDC42BPA (human) (UniProt Q5VT25); assay: Caliper, Mobility shift assay off-chip
RPS6KB2 (human) = RPS6KB2 (human) (UniProt Q9UBS0); assay: Caliper, Mobility shift assay off-chip
RPS6KA2 KD1 KD2 (human) = RPS6KA2 KD1 KD2 (human) (UniProt Q15349); assay: Caliper, Mobility shift assay off-chip
PRKD2 (human) = PRKD2 (human) (UniProt Q9BZL6); assay: Caliper, Mobility shift assay off-chip
TNIK (human) = TNIK (human) (UniProt Q9UKE5); assay: Caliper, Mobility shift assay off-chip
PDPK1 (human) = PDPK1 (human) (UniProt O15530); assay: Caliper, Mobility shift assay off-chip
CSNK2A1 (human) = CSNK2A1 (human) (UniProt P68400); assay: Caliper, Mobility shift assay off-chip
SRPK2 (human) = SRPK2 (human) (UniProt P78362); assay: Caliper, Mobility shift assay off-chip
AXL (human) = AXL (human) (UniProt P30530); assay: Caliper, Mobility shift assay off-chip
PRKCD (human) = PRKCD (human) (UniProt Q05655); assay: Caliper, Mobility shift assay off-chip
PRKCG (human) = PRKCG (human) (UniProt P05129); assay: Caliper, Mobility shift assay off-chip
PRKAA2 (human) = PRKAA2 (human) (UniProt P54646); assay: Caliper, Mobility shift assay off-chip
LTK (human) = LTK (human) (UniProt P29376); assay: Caliper, Mobility shift assay off-chip
DYRK3 (human) = DYRK3 (human) (UniProt O43781); assay: Caliper, Mobility shift assay off-chip
MST1R (human) = MST1R (human) (UniProt Q04912); assay: Caliper, Mobility shift assay off-chip
ALK EML4 (human) = ALK EML4 (human) (UniProt Q9HC35+Q9UM73); assay: Caliper, Mobility shift assay off-chip
GSK3A (human) = GSK3A (human) (UniProt P49840); assay: Caliper, Mobility shift assay off-chip
AKT3 (human) = AKT3 (human) (UniProt Q9Y243); assay: Caliper, Mobility shift assay off-chip
MAPK14 (human) = MAPK14 (human) (UniProt Q16539); assay: Caliper, Mobility shift assay off-chip; conditions: compound 0.2 µM
PASK (human) = PASK (human) (UniProt Q96RG2); assay: Caliper, Mobility shift assay off-chip
CDK6 (human) = CDK6 (human) (UniProt Q00534); assay: Caliper, Mobility shift assay off-chip
TSSK3 (human) = TSSK3 (human) (UniProt Q96PN8); assay: Caliper, Mobility shift assay off-chip
MAPK8 (human) = MAPK8 (human) (UniProt P45983); assay: Caliper, Mobility shift assay off-chip
MAP4K4 (human) = MAP4K4 (human) (UniProt O95819); assay: Caliper, Mobility shift assay off-chip
MARK1 (human) = MARK1 (human) (UniProt Q9P0L2); assay: Caliper, Mobility shift assay off-chip
ZAP70 (human) = ZAP70 (human) (UniProt P43403); assay: Caliper, Mobility shift assay off-chip
PLK2 (human) = PLK2 (human) (UniProt Q9NYY3); assay: IMAP-FP
PKN1 (human) = PKN1 (human) (UniProt Q16512); assay: IMAP-FP
SRPK1 (human) = SRPK1 (human) (UniProt Q96SB4); assay: IMAP-FP
EIF2AK2 (human) = EIF2AK2 (human) (UniProt P19525); assay: IMAP-FP
EIF2AK3 (human) = EIF2AK3 (human) (UniProt Q9NZJ5); assay: IMAP-FP

Sequence of RPS6KB2 (human) (Q9UBS0 whole entry, looked up): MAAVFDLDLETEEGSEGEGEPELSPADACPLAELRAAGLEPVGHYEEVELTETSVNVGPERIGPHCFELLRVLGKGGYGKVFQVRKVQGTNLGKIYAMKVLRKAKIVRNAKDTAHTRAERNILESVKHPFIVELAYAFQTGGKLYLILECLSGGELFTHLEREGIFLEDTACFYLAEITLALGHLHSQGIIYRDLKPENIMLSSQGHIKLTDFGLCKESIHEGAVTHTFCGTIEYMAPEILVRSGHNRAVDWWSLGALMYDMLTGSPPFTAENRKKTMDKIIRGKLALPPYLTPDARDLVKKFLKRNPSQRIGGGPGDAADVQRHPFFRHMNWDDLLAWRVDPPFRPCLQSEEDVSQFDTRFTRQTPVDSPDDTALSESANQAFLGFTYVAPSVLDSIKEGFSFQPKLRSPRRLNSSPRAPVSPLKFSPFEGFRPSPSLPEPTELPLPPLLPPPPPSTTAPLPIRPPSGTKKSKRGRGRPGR
Sequence of SRPK1 (human) (Q96SB4 whole entry, looked up): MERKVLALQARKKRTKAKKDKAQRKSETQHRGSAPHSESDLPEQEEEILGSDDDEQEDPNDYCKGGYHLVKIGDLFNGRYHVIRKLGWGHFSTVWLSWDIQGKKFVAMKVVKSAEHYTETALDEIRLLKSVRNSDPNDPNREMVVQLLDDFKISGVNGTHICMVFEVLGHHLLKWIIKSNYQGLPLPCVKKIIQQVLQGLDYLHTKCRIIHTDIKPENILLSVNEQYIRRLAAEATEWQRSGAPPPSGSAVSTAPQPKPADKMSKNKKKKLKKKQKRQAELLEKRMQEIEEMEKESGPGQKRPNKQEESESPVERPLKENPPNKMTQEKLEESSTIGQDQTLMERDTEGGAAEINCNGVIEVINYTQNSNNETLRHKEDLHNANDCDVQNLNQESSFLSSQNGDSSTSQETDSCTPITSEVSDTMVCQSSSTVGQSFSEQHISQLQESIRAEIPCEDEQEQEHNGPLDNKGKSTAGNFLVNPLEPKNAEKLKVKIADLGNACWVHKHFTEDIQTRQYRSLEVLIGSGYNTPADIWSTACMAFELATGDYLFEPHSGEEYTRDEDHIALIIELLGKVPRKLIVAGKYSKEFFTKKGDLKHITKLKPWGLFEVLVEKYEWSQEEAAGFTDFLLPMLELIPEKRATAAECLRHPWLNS
Sequence of PDPK1 (human) (O15530 whole entry, looked up): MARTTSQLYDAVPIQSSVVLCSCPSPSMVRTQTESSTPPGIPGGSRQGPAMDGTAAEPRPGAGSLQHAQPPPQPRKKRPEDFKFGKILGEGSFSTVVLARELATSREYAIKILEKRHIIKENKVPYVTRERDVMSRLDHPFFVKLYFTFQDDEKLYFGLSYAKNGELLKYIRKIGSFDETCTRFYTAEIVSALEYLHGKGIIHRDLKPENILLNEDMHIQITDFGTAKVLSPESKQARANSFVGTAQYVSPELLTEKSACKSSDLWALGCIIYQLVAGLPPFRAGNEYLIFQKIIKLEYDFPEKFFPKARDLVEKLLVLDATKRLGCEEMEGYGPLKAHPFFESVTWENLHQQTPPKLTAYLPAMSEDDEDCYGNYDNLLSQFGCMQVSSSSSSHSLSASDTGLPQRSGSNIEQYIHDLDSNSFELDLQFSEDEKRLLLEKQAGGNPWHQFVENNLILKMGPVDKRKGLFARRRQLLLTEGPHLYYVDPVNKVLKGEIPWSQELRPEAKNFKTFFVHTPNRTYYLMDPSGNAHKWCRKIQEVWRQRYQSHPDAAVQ
Sequence of ERBB4 (human) (Q15303 whole entry, looked up): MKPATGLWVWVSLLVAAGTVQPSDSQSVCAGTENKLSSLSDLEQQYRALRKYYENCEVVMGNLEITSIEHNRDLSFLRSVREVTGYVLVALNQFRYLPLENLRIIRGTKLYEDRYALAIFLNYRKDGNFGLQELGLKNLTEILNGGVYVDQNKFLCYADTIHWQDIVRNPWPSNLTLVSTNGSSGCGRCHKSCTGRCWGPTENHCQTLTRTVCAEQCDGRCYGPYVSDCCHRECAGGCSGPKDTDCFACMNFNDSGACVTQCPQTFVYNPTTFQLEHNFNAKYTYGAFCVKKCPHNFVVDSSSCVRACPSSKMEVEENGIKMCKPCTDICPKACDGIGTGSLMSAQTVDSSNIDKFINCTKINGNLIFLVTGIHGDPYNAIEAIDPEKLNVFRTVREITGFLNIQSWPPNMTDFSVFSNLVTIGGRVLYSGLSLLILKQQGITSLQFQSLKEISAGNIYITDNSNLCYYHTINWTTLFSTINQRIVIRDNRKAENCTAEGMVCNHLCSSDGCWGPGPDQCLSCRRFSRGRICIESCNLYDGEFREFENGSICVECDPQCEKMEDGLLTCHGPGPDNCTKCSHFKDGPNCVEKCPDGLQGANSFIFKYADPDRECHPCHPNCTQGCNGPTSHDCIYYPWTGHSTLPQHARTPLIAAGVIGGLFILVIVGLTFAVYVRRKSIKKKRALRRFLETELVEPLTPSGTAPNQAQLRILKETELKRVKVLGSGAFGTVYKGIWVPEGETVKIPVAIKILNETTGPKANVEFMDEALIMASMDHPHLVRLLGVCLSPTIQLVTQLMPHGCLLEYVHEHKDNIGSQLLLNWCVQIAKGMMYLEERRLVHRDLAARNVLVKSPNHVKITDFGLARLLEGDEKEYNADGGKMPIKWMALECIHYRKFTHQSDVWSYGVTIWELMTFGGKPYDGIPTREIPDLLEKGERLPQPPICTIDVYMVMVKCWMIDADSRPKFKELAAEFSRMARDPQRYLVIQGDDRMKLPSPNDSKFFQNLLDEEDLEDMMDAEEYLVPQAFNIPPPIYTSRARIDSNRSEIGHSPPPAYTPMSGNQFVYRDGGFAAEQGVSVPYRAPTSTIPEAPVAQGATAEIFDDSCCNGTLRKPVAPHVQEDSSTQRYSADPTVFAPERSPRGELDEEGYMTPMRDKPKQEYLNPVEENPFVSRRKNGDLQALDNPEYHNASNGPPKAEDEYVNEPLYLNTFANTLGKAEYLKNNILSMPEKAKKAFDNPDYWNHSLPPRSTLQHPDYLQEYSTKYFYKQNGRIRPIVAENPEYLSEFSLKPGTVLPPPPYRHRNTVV
Sequence of MST1R (human) (Q04912 whole entry, looked up): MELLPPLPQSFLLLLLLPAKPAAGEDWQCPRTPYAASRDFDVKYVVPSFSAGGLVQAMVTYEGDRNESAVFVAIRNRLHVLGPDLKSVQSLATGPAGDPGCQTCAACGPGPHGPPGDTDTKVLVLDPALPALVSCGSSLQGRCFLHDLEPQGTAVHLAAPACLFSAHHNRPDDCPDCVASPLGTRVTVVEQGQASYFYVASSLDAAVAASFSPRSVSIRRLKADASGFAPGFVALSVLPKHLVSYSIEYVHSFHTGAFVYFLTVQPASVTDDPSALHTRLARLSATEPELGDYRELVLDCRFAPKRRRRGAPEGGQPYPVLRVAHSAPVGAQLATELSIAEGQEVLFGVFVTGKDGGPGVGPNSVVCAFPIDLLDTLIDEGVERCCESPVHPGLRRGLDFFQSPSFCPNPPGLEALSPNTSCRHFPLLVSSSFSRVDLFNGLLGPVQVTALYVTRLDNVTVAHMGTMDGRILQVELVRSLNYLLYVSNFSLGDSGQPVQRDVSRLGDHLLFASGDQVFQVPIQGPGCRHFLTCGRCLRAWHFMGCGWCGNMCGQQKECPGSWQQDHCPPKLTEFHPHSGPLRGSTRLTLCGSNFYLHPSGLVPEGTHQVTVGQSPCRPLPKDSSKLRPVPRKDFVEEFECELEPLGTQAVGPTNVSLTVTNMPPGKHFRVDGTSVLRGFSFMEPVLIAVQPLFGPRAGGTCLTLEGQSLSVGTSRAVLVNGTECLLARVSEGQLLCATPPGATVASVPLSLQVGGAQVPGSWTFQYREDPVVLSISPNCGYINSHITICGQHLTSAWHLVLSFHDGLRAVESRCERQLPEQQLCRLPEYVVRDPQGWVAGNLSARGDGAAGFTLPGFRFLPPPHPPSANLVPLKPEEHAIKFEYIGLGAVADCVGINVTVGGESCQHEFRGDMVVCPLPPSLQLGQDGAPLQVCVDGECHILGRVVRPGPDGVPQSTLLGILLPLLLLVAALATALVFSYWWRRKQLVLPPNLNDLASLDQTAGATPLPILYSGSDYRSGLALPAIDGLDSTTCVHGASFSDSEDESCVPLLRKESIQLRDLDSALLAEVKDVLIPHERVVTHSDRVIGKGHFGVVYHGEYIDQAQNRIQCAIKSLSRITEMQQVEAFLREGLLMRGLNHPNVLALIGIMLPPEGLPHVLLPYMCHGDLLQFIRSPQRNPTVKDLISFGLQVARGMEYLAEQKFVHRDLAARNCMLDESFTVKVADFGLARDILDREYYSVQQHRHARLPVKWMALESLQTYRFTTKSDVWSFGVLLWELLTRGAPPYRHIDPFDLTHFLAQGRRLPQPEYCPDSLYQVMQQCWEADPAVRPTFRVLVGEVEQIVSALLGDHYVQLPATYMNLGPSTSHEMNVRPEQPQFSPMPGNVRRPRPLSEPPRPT
Sequence of PRKCD (human) (Q05655 whole entry, looked up): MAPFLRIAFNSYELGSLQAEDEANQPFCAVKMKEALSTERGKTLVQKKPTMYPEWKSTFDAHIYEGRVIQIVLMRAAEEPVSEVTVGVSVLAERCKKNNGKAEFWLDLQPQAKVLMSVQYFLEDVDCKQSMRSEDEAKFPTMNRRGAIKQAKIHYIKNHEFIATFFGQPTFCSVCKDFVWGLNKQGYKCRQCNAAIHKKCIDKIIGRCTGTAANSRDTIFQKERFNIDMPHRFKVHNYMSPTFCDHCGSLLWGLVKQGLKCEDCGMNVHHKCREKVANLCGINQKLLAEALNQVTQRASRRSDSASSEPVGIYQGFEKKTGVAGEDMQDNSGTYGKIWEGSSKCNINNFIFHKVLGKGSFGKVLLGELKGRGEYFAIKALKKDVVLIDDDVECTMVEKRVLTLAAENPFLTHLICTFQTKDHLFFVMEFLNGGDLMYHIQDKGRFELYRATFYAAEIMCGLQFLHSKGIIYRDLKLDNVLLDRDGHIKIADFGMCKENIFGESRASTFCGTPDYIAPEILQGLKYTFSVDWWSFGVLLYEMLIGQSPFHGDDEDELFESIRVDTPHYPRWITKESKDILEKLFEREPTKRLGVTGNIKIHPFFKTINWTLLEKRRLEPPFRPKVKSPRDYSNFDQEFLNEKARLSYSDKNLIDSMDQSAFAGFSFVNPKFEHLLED

For `CNC(=O)c1cc(Oc2ccc(NC(=O)Nc3ccc(Cl)c(C(F)(F)F)c3)cc2)ccn1`, the inhibition (PRKCH (human)) was 2.1%, the inhibition (ERBB4 (human); compound 0.02 µM) was -0.4% and the inhibition (ERBB4 (human); compound 0.2 µM) was 10.4%. The inhibition (CDC42BPA (human); compound 0.02 µM) was -0.8%, the inhibition (CDC42BPA (human); compound 0.2 µM) was 8.1% and the inhibition (RPS6KB2 (human); compound 0.02 µM) was 6.3%. For the same compound, the inhibition (RPS6KB2 (human); compound 0.2 µM) was 5.5%, the inhibition (RPS6KA2 KD1 KD2 (human); compound 0.02 µM) was -4.3% and the inhibition (RPS6KA2 KD1 KD2 (human); compound 0.2 µM) was -0.2%. For the same compound, the inhibition (PRKD2 (human); compound 0.02 µM) was -1.2%, the inhibition (PRKD2 (human); compound 0.2 µM) was 0% and the inhibition (TNIK (human); compound 0.02 µM) was -6.2%. It also gave an inhibition (TNIK (human); compound 0.2 µM) of 0.8%, an inhibition (PDPK1 (human); compound 0.02 µM) of -1% and an inhibition (PDPK1 (human); compound 0.2 µM) of 0.9%. The inhibition (CSNK2A1 (human); compound 0.02 µM) was -2%, the inhibition (CSNK2A1 (human); compound 0.2 µM) was 0.3% and the inhibition (SRPK2 (human); compound 0.02 µM) was -5.7%. It also gave an inhibition (SRPK2 (human); compound 0.2 µM) of -6.5%, an inhibition (AXL (human); compound 0.02 µM) of -7.4% and an inhibition (AXL (human); compound 0.2 µM) of 7.1%. The inhibition (PRKCD (human); compound 0.02 µM) was -1.7%, the inhibition (PRKCD (human); compound 0.2 µM) was 11.7% and the inhibition (PRKCG (human); compound 0.02 µM) was -2.1%. The inhibition (PRKCG (human); compound 0.2 µM) was 16.8%, the inhibition (PRKAA2 (human); compound 0.02 µM) was -5.3% and the inhibition (PRKAA2 (human); compound 0.2 µM) was 10.4%. For the same compound, the inhibition (LTK (human); compound 0.02 µM) was -2.2%, the inhibition (LTK (human); compound 0.2 µM) was 7.4% and the inhibition (DYRK3 (human); compound 0.02 µM) was -5.8%. For the same compound, the inhibition (DYRK3 (human); compound 0.2 µM) was 2.1%, the inhibition (MST1R (human); compound 0.02 µM) was -4.7% and the inhibition (MST1R (human); compound 0.2 µM) was 5.3%. It also gave an inhibition (ALK EML4 (human); compound 0.02 µM) of -6.5%, an inhibition (ALK EML4 (human); compound 0.2 µM) of 2.8% and an inhibition (GSK3A (human); compound 0.02 µM) of -3.9%. It also gave an inhibition (GSK3A (human); compound 0.2 µM) of 6.8%, an inhibition (AKT3 (human); compound 0.02 µM) of -2.6% and an inhibition (AKT3 (human); compound 0.2 µM) of -1.1%. The inhibition (MAPK14 (human)) was 63.8%, the inhibition (PASK (human); compound 0.02 µM) was -1% and the inhibition (PASK (human); compound 0.2 µM) was 1.7%. The inhibition (CDK6 (human); compound 0.02 µM) was 0.1%, the inhibition (CDK6 (human); compound 0.2 µM) was 2% and the inhibition (TSSK3 (human); compound 0.02 µM) was 2.7%. For the same compound, the inhibition (TSSK3 (human); compound 0.2 µM) was 8.3%, the inhibition (MAPK8 (human); compound 0.02 µM) was -2.3% and the inhibition (MAPK8 (human); compound 0.2 µM) was -2.1%. It also gave an inhibition (MAP4K4 (human); compound 0.02 µM) of -4.1%, an inhibition (MAP4K4 (human); compound 0.2 µM) of 6% and an inhibition (MARK1 (human); compound 0.02 µM) of -0.8%. The inhibition (MARK1 (human); compound 0.2 µM) was 0.9%, the inhibition (ZAP70 (human); compound 0.02 µM) was -17.2% and the inhibition (ZAP70 (human); compound 0.2 µM) was 19.1%. The inhibition (PLK2 (human); compound 0.02 µM) was -0.6%, the inhibition (PLK2 (human); compound 0.2 µM) was -2.1% and the inhibition (PKN1 (human); compound 0.02 µM) was -40.2%. For the same compound, the inhibition (PKN1 (human); compound 0.2 µM) was -39.4%, the inhibition (SRPK1 (human); compound 0.02 µM) was -5.4% and the inhibition (SRPK1 (human); compound 0.2 µM) was 0.2%. The inhibition (EIF2AK2 (human); compound 0.02 µM) was -12.3%, the inhibition (EIF2AK2 (human); compound 0.2 µM) was -14.3% and the inhibition (EIF2AK3 (human); compound 0.02 µM) was -23.9%. For the same compound, the inhibition (EIF2AK3 (human); compound 0.2 µM) was 4.5%.
